Test: Photochromic response of imbibed diethylene glycol bis(allyl carbonate) polymer test squares on an optical bench
Type: physicochemical
Conditions: for Δ OD @ SATURATION: UV exposure continued for 20 minutes; for BLEACH RATE T 1/2: time for absorbance of activated form to reach one half the highest absorbance at 25.7 ± 0.5 °C after removal of activating light
Procedure: Comparative testing was conducted on the principle product of Example 3 and certain photochromic compounds described in U.S. Patents 4,342,668 and 4,637,698. These compounds were imbibed by thermal transfer into test squares of a polymeric matrix prepared from a diethylene glycol bis(allyl carbonate) composition by the following procedure: Each photochromic compound was dissolved in toluene to form a 4 weight percent solution of the compound. A piece of No. 4 Whatman filter paper was saturated with the toluene solution of the photochromic compound and allowed to air dry. The dried filter paper was placed on one side of the polymer test square, which measured 1/8 inch (0.3 centimeter) x 2 inch (5.1 centimeters) x 2 inch (5.1 centimeters). A piece of untreated filter paper was placed on the other side of the polymer test square and the resulting sandwich placed between two plates of flat aluminum metal plates. The entire assembly was then placed in a 155°C. oven for a time sufficient to thermally transfer the photochromic compound into the polymer test square. […] The imbibed test squares were washed with acetone after removal from the oven.
The imbibed polymer test squares were tested for photochromic response rates on an optical bench. The samples were illuminated by a 150 watt Xenon lamp fitted with a copper sulfate bath and a neutral density filter at an intensity of about one sun. A second beam of light provided by a filtered tungsten lamp arranged to pass through the sample area exposed by the UV source was used to monitor changes in transmission of the sample over different wavelength ranges in the visible region of the spectrum. The intensity of the monitoring beam after passing through the sample was measured by means of an IL-1500 radiometer equipped with a silicon detector head and matching filters.
The Δ OD/min., which represents the sensitivity of the photochromic compound's response to UV light, was measured using photopic filters on the silicon detector. The response of the filtered detector approximated the luminosity curve. The Δ OD was measured over the first five (5) seconds of UV exposure, then expressed on a per minute basis. The saturation optical density (OD) was taken under identical conditions as the Δ OD/min., except UV exposure was continued for 20 minutes. The lambda max reported in Table 2 is the wavelength in the ultraviolet range closest to the visible spectrum or in the threshold range, i.e., 390 to 410 nanometers, of the visible spectrum at which the maximum absorption and activation of the photochromic compound occurs in the polymer matrix test squares.
The bleach rate T 1/2(sec.) is the time interval in seconds for the absorbance of the activated form of the photochromic compounds in the test polymer to reach one half the highest absorbance at 25.7 ± 0.5 °C. after removal of the source of activating light.

Molecule	Δ OD @ SATURATION	BLEACH RATE T 1/2
1-propyl-3,3,4,5(or 3,3,5,6)-tetramethyl-9'-methoxycarbonyl-8'-acetoxy-spiro[indoline-2,3'-[3H]naphth[2,1-b]-[1,4]oxazine]	0.42	2.27 min
1-propyl-3,3,4,5(or 3,3,5,6)-tetramethyl-spiro[indoline-2,3'-[3H]naphth[2,1-b][1,4]oxazine]	0.11	0.783 min
CCCN1c2cc(C)c(C)cc2C(C)(C)C12C=Nc1c(ccc3ccc(OC)cc13)O2 (centres unmarked) [A, 1-propyl-3,3,5,6-tetramethyl-9'-methoxy-spiro[indoline-2,3'-[3H]naphth[2,1-b][1,4]oxazine]]	0.11	1.17 min
CCCN1c2cc(C)c(C)cc2C(C)(C)C12C=Nc1c(ccc3ncccc13)O2 (centres unmarked) [B, 1-propyl-3,3,5,6-tetramethyl-spiro[indoline-2,3'-[3H]pyrido-[3,2-f][1,4]benzoxazine]]	0.36	1.15 min
